# Target: T1, α5β3γ2 receptor (Homo sapiens, UniProt P18507+P31644)
# T1 construct: expressed in transfected cells; host or cells: HEK-293 (stably transfected)
# Experiment: Supplementary data for cell level screening: new electrophysiology method (I. Lecker et al)
# Format: cell-based
# Conditions: for Inverse agonism efficacy(%): new method, CsCl intracellular solution, GABA 0.1˜0.3 CM, other procedures as previous method; for inverse agonism efficacy of the compound/α5IA inverse agonism efficacy: ratio to the α5IA reference run above in the table (r4 or r29)
# T1 sequence (P31644 32-462): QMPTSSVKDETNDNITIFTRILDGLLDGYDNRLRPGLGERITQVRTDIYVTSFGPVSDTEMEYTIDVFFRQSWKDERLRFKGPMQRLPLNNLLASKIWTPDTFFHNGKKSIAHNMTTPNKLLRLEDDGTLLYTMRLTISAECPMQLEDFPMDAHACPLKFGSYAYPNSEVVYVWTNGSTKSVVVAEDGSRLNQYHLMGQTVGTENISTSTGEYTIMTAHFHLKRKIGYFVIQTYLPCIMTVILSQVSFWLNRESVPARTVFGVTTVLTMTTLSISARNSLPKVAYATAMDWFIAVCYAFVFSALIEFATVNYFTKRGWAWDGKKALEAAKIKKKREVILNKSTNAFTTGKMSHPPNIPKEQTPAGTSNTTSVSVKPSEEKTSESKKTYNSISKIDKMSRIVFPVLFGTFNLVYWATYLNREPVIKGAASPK
# T1 sequence (P28472 26-473 isoform P28472-2 partner limits assumed): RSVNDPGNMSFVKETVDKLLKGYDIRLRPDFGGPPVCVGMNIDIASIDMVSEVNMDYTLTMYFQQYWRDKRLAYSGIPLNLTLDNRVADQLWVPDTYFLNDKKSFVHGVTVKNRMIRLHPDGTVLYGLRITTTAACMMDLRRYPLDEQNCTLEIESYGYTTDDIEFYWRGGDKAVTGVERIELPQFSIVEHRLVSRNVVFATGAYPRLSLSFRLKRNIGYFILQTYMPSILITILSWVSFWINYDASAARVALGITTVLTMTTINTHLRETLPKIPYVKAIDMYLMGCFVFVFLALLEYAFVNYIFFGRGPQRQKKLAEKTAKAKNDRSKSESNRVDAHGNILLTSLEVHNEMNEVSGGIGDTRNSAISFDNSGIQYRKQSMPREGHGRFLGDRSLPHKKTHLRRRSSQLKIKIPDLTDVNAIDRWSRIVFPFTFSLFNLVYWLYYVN
# T1 sequence (P18507 40-475): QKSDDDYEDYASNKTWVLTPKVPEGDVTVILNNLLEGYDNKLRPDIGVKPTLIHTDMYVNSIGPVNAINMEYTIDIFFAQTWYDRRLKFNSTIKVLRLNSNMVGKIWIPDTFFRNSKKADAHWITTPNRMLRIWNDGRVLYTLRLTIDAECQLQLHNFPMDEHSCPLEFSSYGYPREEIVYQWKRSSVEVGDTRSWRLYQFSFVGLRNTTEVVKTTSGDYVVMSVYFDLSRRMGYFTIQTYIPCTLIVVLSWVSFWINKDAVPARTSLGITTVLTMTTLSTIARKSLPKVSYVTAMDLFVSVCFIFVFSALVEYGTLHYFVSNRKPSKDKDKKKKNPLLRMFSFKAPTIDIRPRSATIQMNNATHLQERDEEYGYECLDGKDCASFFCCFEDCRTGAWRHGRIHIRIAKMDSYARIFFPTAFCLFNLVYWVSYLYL
Inverse agonism efficacy(%),inverse agonism efficacy of the compound/α5IA inverse agonism efficacy,Compound
−21.1667%,1.219,"CCNC(=O)c1ccc(COc2nn3c(-c4cc(C)on4)nnc3c3ccccc23)nc1 [Compound 07, N-ethyl-6-(((3-(5-methylisoxazol-3-yl)-[1,2,4]triazolo[3,4-a]phthalazin-6-yl)oxy)methyl)nicotinamide]"
−35.375%,1.902,"COCCNC(=O)c1ccc(COc2nn3c(-c4cc(C)on4)nnc3c3ccccc23)nc1 [Compound 08, N-(2-methoxyethyl)-6-(((3-(5-methylisoxazol-3-yl)-[1,2,4]triazolo[3,4-a]phthalazin-6-yl)oxy)methyl)nicotinamide]"

# From patent publication US11220503B2, “Phthalazine derivatives, preparation method, pharmaceutical composition and usage thereof” (Shanghai SIMR Biotech Co., Ltd., priority 2015, dated 2022)
